The text below walks through data of US20250136997A1, “COMPOSITIONS FOR SEQUESTERING ISOAMYL AMINE AND METHODS OF USE THEREFOR” (University of Louisville Research Foundation, Inc., priority 2023, published 2025).

SMILES strings stand for the structures.

A short description of test [1]: Electroencephalography (EEG) recording in mice. In kind it is in vivo, mouse. As to the method:
Electroencephalography (EEG) recording in mice. Groups of mice were anesthetized by peritoneal administration of ketamine (90 mg/kg) and xylazine (10 mg/kg) mixture. Mice that were not responsive to nociceptive stimuli were consider anesthetized and were administered the analgesic buprenorphine (0.1 mg/kg). The fur of the skull area was removed, placed on surgical bench and skin area were cleaned with betadine and 70% ethyl alcohol. The midline scalp skin was lifted using forceps and an incision made from the frontal cranial bone to the back of the parietal cranial bones. The skin was push aside and cleaned with betadine using cotton swabs. The skull was cleaned and marked for placement of electrodes. Two craniotomies 0.25-0.5 mm in diameter on the side of each hemisphere were established a 3 mm distance from the midline vertical fissure in the frontal and occipital regions; a hand-held drill (Kopf) with matching drill bits (0.5 mm) was used for the craniotomies. Four electrodes were placed in appropriate skull holes over the frontal cortex (FC) and occipital cortex (OC). A ground/reference electrode was also implanted in the most anterior region of cerebellum. Thus, two independent EEG channels were created for FC and OC on each side of the hemisphere. […]

Test [2] relates to promoter of S100A8. The test can be described thus: SPR of p53 protein and biotinylated oligo with or without IAA. In kind it is binding, mouse.
For test [3], the system named is promoter of S100A8. Briefly: Chromatin immunoprecipitation assay with biotinylated IAA. The class given is binding, mouse. Conditions: BV2 genomic DNA. On the procedure: Chromatin immunoprecipitation assay. To identify the interaction of IAA and promoter of S100A8, 1 mg of IAA was labeled with biotin using the EZ-Link NHS-PEG4 Biotinylation kit (Thermo Fisher Sci., #21455) and excess biotin was removed using a desalting column. Biotinylated IAA was incubated with microglia BV2 cells for 3 h at 37° C. following 37% formaldehyde (final 1%) in 1 ml PBS for one more hour for cross-linking. The cell lysate was collected in 1 ml of RIPA buffer and sonication was used to shear the chromatin into 0.5˜1 kb fragment. Streptavidin Dynabeads ([…]) were added to the DNA samples for 1 h at room temperature. PBS replaced the DNA and was incubated with the beads as the control to exclude non-specific interactions. After washing beads with PBS, biotinylated IAA was eluted from the beads with the biotin (4 mg/ml) in 25mMTris-HCL containing 0.3MNaCl (pH 8.5) as the elution buffer at room temperature for 1 h or 95° C. for 5 min. The supernatant was collected and the DNA was purified with acetic acid (2%, v/v) and dissolved into […] of H2O. Two ml of DNA was used in quantitative PCR reactions using the primers of S100A8-ChIP in Table 3.

Test [4] relates to S100A8. Briefly: Western blot of S100A8 in p53 KO microglia after IAA. In kind it is cell-based, mouse. Conditions: p53 KO with CRISPR-Cas9, IAA 12 h. On the procedure: Western blotting. Cells were treated as indicated in individual Figure legends and whole cell extracts (WCE) were prepared in the radioimmunoprecipitation assay (RIPA) buffer (Sigma) with addition of protease and phosphatase inhibitors (Roche). Proteins were separated by 10% SDS-PAGE and transferred to polyvinylidene difluoride (PVDF) membranes (Bio-Rad Laboratories, Inc., Hercules, CA). Dual color precision protein MW markers (BioRad) were separated in parallel. Antibodies were purchased as follows: cleaved-caspase-3 (ab214430), cleaved PARP (ab203467) and GAPDH (ab9657, Abcam) from Abcam; S100A8 (47310) and S100a9 (72590) from Cell Signaling; and Ltf (GTX81085) from GeneTex. The secondary antibodies conjugated to Fluors Alex-488 (A32723) or Alex-594 (A11012) were purchased from Invitrogen (Eugene, OR). The bands were visualized on the Odyssey Imager (LiCor Inc, Lincoln, NE).

For the compound `CC(C)CCN` [IAA, isoamylamine], in test [1] (IAA mice vs control, phage to aged mice), the EEG rhythms coherence entry is recorded as “incoherence”. For the same compound, the “distributions of DSA (bilateral symmetry)” value in test [1] (IAA-treated young mice, phage-treated aged mice) is recorded as “asymmetric bilaterally”. Also, in test [2], the “p53 binding to promoter of S100A8 (SPR)” value was “p53 binds to promoter of S100A8 in an IAA dependent manner”. Moreover, in test [3], the “interaction with promoter of S100A8 genomic DNA (ChIP)” value was “demonstrated”. Further, the “S100A8 induced by IAA (western blot)” value in test [4] is recorded as “p53 dependent”.
